Assay results as given in patent US5877210A, “Phosphotyrosine phosphatase inhibitors or phosphotyrosine kinase activators for controlling cellular proliferation” (priority 1995, dated 1999).
Several values for one entry are separate records, joined by “and”; a condition that tells them apart may be missing. Identical values can stand only once. Entries after “also recorded” stand apart in the source; their conditions may differ.

Legend:
Ramos B cells = experiment: Viability by propidium iodide staining and flow cytometry; format: cell-based, human; conditions: 25 μM BMLOV, 4 days (FIG. 15B) or 5 d (FIG. 30)
Description: The extent to which the T cells were being killed by BMLOV treatment relative to the Ramos B cells was therefore examined. […] The percentage of cells in each quadrant is indicated. The lower right quadrant contains the viable cells.

PP1 = experiment: Serine/threonine phosphatase PP1 inhibition; format: biochemical; conditions: vs CD45 and PTP1B
[1] = test system: peripheral blood lymphocytes; experiment: Leukocyte counts in mice after pV(phen); format: in vivo, BALB/C mice; conditions: one dose i.p.; for Absolute Counts: Eosinophil / Absolute Counts: Lymphocyte / Absolute Counts: Monocyte / Absolute Counts: Neutrophil: blood 24 hr later, individual animals
Description: BALB/C mice received one dose of pV(phen) i.p. and their blood was examined 24 hr later.

Structure (SMILES)	killing by BMLOV, in words (Ramos B cells)	concentration for similar inhibition relative to phosphotyrosine phosphatases (PP1)	Absolute Counts: Eosinophil ([1]; Dose 1 μM)	Absolute Counts: Lymphocyte ([1]; Dose 1 μM)	Absolute Counts: Monocyte ([1]; Dose 1 μM)	Absolute Counts: Neutrophil ([1]; Dose 1 μM)	Absolute Counts: Eosinophil ([1]; Dose 2 μM)	Absolute Counts: Lymphocyte ([1]; Dose 2 μM)	Absolute Counts: Monocyte ([1]; Dose 2 μM)	Absolute Counts: Neutrophil ([1]; Dose 2 μM)	effect on monocytes, in words ([1]; 24 hr)	number of neutrophils, in words ([1]; 24 hr)	number of peripheral blood lymphocytes, in words ([1]; 24 hr)
Cc1occc(=O)c1[O-].Cc1occc(=O)c1[O-].[O]=[V+2] [BMLOV, Bis(maltolato)oxovanadium (IV)]	substantially more sensitive to killing; also recorded: completely killed	over 100 fold											
[Na+].[O]=[V-]12([O][O]1)[O][O]2.c1cnc2c(c1)ccc1cccnc12 [pV(phen), sodium (1,10-phenanthroline) oxodiperoxovanadium (V)]			244 and 26	3848 and 1612	488 and 104	1525 and 858	78 and 81	1560 and 2511	390 and 0	1872 and 5508	no consistent effect was observed	substantially increased	markedly reduced
